Biological target: T1, NCX1-containing HEK membrane fragments (human cardiac sodium calcium exchanger NCX-1) (Homo sapiens, UniProt P32418)
T1 construct: expressed in transfected cells; host or cells: HEK-293 (Flp-In T-Rex-293-NCX1, DSM ACC2670), doxycycline-induced; membrane fragments
Assay: cell free electrophysiological sensor chip (SurfE2R) NCX assay, current on Ca2+ concentration jump
Type: biochemical
Conditions: 5 mM
Description: 10-30 μl, for example, of NCX-containing membrane fragments were applied and circulated on the sensor chip and preferably incubated for at least 12 hours at 4° C. In preferred cases of experiments the NCX protein is a human NCX1 protein. The capacitance of the protein-loaded sensor chip was preferably around 100 nF cm^−2 and the conductance G1s preferably around 10 nS cm^−2. The principal of the assay is to test the electrical activity of NCX protein in the absence of the inhibitor and afterwards in the presence of the inhibitor. For this reason the NCX-sensor chip is rinsed with a sequence of solutions, which activate NCX. In general, there is the possibility to test whether an inhibitor is reversible. In this case after the inhibitor application the solutions are changed back to inhibitor-free conditions. Before the experiment the solution reservoirs of the chip are filled with the following preferred solutions: washing buffer: 40 mM KCl, 100 mM NaCl, 4 mM MgCl2, 30 mM HEPES/NMG pH 7.4; non-activating solution: 140 mM KCl, 4 mM MgCl2, 30 mM HEPES/NMG pH 7.4; activating solution: 140 mM KCl, 4 mM MgCl2, 30 mM HEPES/NMG pH 7.4, 0.5 mM CaCl2. […]
For the determination of its activity, the NCX protein was treated consecutively with a washing, non-activating and activating solution and the electrical current was measured when changing from […] to activating treatment. […]

SMILES: [Ni+2] [Ni^2+]
- effect on NCX current in control experiments: diminished

From patent US8026069B2, “Process for identification of compounds for modulating the activity of sodium/calcium exchange transporter” (Sanofi-Aventis Deutschland GmbH, priority 2004, dated 2011)
